Values after ≈ are worked out from the molar mass of the structure shown.
What was measured:
Enterococcus faecalis = experiment: Antibacterial activity against Enterococcus faecalis SR1004 clinical isolate assessed as […] by CLSI broth microdilution method; format: functional
Enterococcus faecium = experiment: Antibacterial activity against Enterococcus faecium SR7940 clinical isolate assessed as […] by CLSI broth microdilution method; format: functional
Staphylococcus aureus [1] = experiment: Antibacterial activity against methicillin-resistant Staphylococcus aureus SR3637 clinical isolate assessed as […] by CLSI broth microdilution method; format: functional
Streptococcus pneumoniae [2] = experiment: Antibacterial activity against penicillin-resistant Streptococcus pneumoniae SR11031 clinical isolate assessed as […] by CLSI broth microdilution method; format: functional
Moraxella catarrhalis = experiment: Antibacterial activity against Moraxella catarrhalis SR26840 clinical isolate assessed as […] by CLSI broth microdilution method; format: functional
Staphylococcus aureus [3] = experiment: Antibacterial activity against linezolid-resistant Staphylococcus aureus NRS271 clinical isolate harboring G2576T mutation in peptidyl transferase center domain V of 23S rRNA gene assessed as […] by CLSI broth microdilution method; format: functional
Staphylococcus aureus [4] = experiment: Antibacterial activity against Staphylococcus aureus SR20549 clinical isolate assessed as […] by CLSI broth microdilution method; format: functional
Staphylococcus aureus [5] = experiment: Antibacterial activity against Staphylococcus aureus Smith clinical isolate assessed as […] by CLSI broth microdilution method; format: functional
Streptococcus pneumoniae [6] = experiment: Antibacterial activity against Streptococcus pneumoniae SR26207 clinical isolate assessed as […] by CLSI broth microdilution method; format: functional
Haemophilus influenzae = experiment: Antibacterial activity against Haemophilus influenzae SR27914 clinical isolate assessed as […] by CLSI broth microdilution method; format: functional
Staphylococcus aureus [7] = experiment: Ratio of linezolid MIC to compound MIC for Staphylococcus aureus Smith clinical isolate; format: functional
Staphylococcus aureus [8] = experiment: Ratio of linezolid MIC to compound MIC for Staphylococcus aureus SR20549 clinical isolate; format: functional
Staphylococcus aureus [9] = experiment: Antibacterial activity against methicillin-resistant Staphylococcus aureus SR3637 clinical isolate infected in iv dosed JCL/ICR systemic infection model assessed as mortality administered after 1 hr of infection measured for 7 days; format: functional
Staphylococcus aureus [10] = experiment: Antibacterial activity against methicillin-resistant Staphylococcus aureus SR3637 clinical isolate infected in po dosed JCL/ICR systemic infection model assessed as mortality administered after 1 hr of infection measured for 7 days; format: functional
Cytochrome P450 2C9 = Cytochrome P450 2C9 (Homo sapiens, UniProt P11712); experiment: Inhibition of human CYP2C9 assessed as tolbutamide hydroxylation after 20 mins by LC-MS/MS analysis; format: ADME
MAO-B = molecular target: T1, MAO-B (Rattus norvegicus, UniProt P19643); experiment: Inhibition of rat forebrain MAO-B using [14C]PEA as substrate at 30 uM preincubated for 20 mins followed by substrate addition measured after 10 mins by liquid scintillation counting analysis; settings: probe [14C]PEA
T1 sequence (P19643 whole entry): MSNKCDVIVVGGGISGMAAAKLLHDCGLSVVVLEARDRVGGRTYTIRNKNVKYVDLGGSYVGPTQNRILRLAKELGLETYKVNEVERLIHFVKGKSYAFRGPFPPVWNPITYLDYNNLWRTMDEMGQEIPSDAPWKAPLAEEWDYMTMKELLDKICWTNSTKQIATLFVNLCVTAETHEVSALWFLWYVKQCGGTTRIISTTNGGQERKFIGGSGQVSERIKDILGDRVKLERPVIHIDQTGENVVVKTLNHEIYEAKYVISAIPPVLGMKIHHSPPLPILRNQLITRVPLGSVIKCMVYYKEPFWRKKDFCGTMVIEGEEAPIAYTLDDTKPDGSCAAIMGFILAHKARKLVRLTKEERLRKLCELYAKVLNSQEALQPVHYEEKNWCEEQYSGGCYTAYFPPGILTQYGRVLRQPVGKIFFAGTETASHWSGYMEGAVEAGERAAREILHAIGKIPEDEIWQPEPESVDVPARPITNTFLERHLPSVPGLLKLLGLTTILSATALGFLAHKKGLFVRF

MAO-A = molecular target: T2, MAO-A (Rattus norvegicus, UniProt P21396); experiment: Inhibition of rat forebrain MAO-A using [14C]5-HT as substrate at 30 uM preincubated for 20 mins followed by substrate addition measured after 5 mins by liquid scintillation counting analysis; settings: probe [14C]5-HT
T2 sequence (P21396 whole entry): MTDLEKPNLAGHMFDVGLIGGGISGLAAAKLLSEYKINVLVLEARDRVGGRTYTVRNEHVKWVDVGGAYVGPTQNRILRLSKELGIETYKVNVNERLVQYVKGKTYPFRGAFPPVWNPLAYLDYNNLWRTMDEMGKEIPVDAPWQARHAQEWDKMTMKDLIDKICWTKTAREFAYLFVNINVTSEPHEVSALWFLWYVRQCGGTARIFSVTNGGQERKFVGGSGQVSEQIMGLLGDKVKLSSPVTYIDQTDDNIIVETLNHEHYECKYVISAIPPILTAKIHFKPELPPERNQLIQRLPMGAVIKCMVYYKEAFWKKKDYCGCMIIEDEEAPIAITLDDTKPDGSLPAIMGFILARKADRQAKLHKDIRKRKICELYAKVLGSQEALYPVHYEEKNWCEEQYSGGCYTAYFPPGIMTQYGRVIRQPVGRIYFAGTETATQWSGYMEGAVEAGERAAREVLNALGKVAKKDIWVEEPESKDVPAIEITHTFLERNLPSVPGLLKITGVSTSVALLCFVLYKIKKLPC

Cytochrome P450 1A2 = molecular target: T3, Cytochrome P450 1A2 (Homo sapiens, UniProt P05177); experiment: Inhibition of human CYP1A2 assessed as ethoxyresorufin O-deethylation after 20 mins by fluorescence plate reader; format: ADME
T3 sequence (P05177 whole entry): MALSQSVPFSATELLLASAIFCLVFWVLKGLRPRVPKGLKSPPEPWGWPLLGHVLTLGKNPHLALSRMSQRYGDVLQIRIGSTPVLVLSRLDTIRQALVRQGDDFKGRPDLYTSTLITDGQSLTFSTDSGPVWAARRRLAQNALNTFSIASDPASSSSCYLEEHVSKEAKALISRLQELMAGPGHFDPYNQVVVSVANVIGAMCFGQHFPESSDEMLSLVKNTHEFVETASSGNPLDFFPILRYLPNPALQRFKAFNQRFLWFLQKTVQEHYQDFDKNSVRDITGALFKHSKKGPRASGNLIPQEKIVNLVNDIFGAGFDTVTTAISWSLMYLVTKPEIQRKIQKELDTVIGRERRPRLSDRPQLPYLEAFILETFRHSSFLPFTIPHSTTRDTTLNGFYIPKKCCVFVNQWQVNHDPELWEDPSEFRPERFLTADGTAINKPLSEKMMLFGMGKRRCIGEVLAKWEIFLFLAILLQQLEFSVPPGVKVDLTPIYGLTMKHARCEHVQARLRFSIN

Cytochrome P450 3A4 = Cytochrome P450 3A4 (Homo sapiens, UniProt P08684); experiment: Inhibition of human CYP3A4 assessed as terfenadine hydroxylation after 20 mins by LC-MS/MS analysis; format: ADME
Cytochrome P450 2D6 = Cytochrome P450 2D6 (Homo sapiens, UniProt P10635); experiment: Inhibition of human CYP2D6 assessed as dextromethorphan O-demethylation after 20 mins by LC-MS/MS analysis; format: ADME
Cytochrome P450 2D6, sequence (P10635 whole entry): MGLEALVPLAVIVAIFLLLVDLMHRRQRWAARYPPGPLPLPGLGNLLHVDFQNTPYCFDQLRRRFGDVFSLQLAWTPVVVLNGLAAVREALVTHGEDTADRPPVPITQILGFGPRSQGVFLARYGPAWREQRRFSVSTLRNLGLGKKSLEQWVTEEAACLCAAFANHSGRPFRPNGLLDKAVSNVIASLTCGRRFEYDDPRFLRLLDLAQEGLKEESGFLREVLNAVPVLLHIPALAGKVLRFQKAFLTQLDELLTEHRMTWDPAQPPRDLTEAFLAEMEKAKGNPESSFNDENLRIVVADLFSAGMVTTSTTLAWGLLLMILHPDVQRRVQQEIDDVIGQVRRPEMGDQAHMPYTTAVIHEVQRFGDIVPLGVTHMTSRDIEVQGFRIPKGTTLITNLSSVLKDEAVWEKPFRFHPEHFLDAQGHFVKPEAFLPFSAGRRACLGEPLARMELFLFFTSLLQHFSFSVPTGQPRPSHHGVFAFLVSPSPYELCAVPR

Cytochrome P450 3A4, sequence (P08684 whole entry): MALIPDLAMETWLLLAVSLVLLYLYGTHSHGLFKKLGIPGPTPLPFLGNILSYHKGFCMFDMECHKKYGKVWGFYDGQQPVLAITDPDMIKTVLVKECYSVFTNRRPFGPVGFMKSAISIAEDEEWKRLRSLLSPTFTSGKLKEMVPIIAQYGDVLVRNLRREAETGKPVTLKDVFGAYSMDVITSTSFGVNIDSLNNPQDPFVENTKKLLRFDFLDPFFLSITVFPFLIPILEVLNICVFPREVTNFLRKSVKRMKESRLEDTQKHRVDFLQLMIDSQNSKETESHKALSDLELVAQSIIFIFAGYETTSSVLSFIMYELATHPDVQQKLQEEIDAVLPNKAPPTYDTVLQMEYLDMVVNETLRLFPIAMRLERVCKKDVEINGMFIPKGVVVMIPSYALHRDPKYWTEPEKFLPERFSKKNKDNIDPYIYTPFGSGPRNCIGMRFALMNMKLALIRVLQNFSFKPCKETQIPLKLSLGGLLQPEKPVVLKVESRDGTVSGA
Cytochrome P450 2C9, sequence (P11712 whole entry): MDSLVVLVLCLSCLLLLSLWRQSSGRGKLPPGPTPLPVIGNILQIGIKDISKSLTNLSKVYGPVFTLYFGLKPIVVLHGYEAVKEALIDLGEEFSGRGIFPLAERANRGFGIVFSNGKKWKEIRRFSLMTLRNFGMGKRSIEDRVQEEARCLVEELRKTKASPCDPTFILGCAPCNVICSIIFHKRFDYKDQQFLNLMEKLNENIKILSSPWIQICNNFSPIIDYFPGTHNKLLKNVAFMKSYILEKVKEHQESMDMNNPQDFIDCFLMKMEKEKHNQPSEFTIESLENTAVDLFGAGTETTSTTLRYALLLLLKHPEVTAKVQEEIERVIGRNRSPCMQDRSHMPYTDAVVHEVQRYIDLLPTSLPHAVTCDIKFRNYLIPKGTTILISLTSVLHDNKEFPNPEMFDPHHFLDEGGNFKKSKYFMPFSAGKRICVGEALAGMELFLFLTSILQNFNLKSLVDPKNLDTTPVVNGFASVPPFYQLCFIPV

Compound | MIC (Enterococcus faecalis) | MIC (Enterococcus faecium) | MIC (Staphylococcus aureus [1]) | MIC (Streptococcus pneumoniae [2]) | MIC (Moraxella catarrhalis) | MIC (Staphylococcus aureus [3]) | MIC (Staphylococcus aureus [4]) | MIC (Staphylococcus aureus [5]) | MIC (Streptococcus pneumoniae [6]) | MIC (Haemophilus influenzae) | Ratio (Staphylococcus aureus [7]) | Ratio (Staphylococcus aureus [8]) | ED50 (Staphylococcus aureus [9]) | ED50 (Staphylococcus aureus [10]) | IC50 (Cytochrome P450 2C9) | inhibition at 10 min, 30 µM (MAO-B) | inhibition at 5 min, 30 µM (MAO-A) | IC50 (Cytochrome P450 1A2) | IC50 (Cytochrome P450 3A4) | IC50 (Cytochrome P450 2D6)
O=C1O[C@@H](Cn2ccnn2)CN1c1ccc(-c2ccc3nccn3c2)c(F)c1 | 0.5 µg/mL (≈ 1.32 µM) | 0.5 µg/mL (≈ 1.32 µM) | 0.25 µg/mL (≈ 0.661 µM) | ≤ 0.063 µg/mL | 4 µg/mL (≈ 10.6 µM) | 4 µg/mL (≈ 10.6 µM) | 0.25 µg/mL (≈ 0.661 µM) | 0.5 µg/mL (≈ 1.32 µM) | ≤ 0.063 µg/mL | 4 µg/mL (≈ 10.6 µM) | – | – | – | – | – | – | – | – | – | –
CC(=O)NC[C@H]1CN(c2ccc(-c3ccc4ncnn4c3)c(F)c2)C(=O)O1 | 0.5 µg/mL (≈ 1.35 µM) | 0.5 µg/mL (≈ 1.35 µM) | 0.5 µg/mL (≈ 1.35 µM) | ≤ 0.063 µg/mL | 8 µg/mL (≈ 21.7 µM) | 8 µg/mL (≈ 21.7 µM) | 0.5 µg/mL (≈ 1.35 µM) | 0.5 µg/mL (≈ 1.35 µM) | ≤ 0.063 µg/mL | 4 µg/mL (≈ 10.8 µM) | 4 | 2 | – | – | – | – | – | – | – | –
CC(=O)NC[C@H]1CN(c2ccc(-c3ccc4cncn4c3)c(F)c2)C(=O)O1 | 0.5 µg/mL (≈ 1.36 µM) | 0.5 µg/mL (≈ 1.36 µM) | 0.5 µg/mL (≈ 1.36 µM) | ≤ 0.063 µg/mL | 4 µg/mL (≈ 10.9 µM) | 4 µg/mL (≈ 10.9 µM) | 0.25 µg/mL (≈ 0.679 µM) | 1 µg/mL (≈ 2.71 µM) | ≤ 0.063 µg/mL | 8 µg/mL (≈ 21.7 µM) | 2 | 2 | 3.05 mg/kg | – | – | – | – | – | – | –
O=C1O[C@@H](Cn2ccnn2)CN1c1ccc(-c2ccc3ncnn3c2)c(F)c1 | 0.5 µg/mL (≈ 1.32 µM) | 0.25 µg/mL (≈ 0.659 µM) | 0.25 µg/mL (≈ 0.659 µM) | ≤ 0.063 µg/mL | 8 µg/mL (≈ 21.1 µM) | 8 µg/mL (≈ 21.1 µM) | 0.25 µg/mL (≈ 0.659 µM) | 0.5 µg/mL (≈ 1.32 µM) | ≤ 0.063 µg/mL | 4 µg/mL (≈ 10.5 µM) | – | – | – | – | – | – | – | – | – | –
CC(=O)NC[C@H]1CN(c2ccc(-c3ccc4nccn4c3)c(F)c2)C(=O)O1 | 0.5 µg/mL (≈ 1.36 µM) | 0.25 µg/mL (≈ 0.679 µM) | 0.5 µg/mL (≈ 1.36 µM) | ≤ 0.063 µg/mL | 8 µg/mL (≈ 21.7 µM) | 8 µg/mL (≈ 21.7 µM) | 0.5 µg/mL (≈ 1.36 µM) | 1 µg/mL (≈ 2.71 µM) | ≤ 0.063 µg/mL | 4 µg/mL (≈ 10.9 µM) | 2 | 4 | 3.17 mg/kg | 3.05 mg/kg | – | – | – | – | – | –
CC(=O)NC[C@H]1CN(c2ccc(-c3ccn4ccnc4c3)c(F)c2)C(=O)O1 | 0.25 µg/mL (≈ 0.679 µM) | 0.5 µg/mL (≈ 1.36 µM) | 0.25 µg/mL (≈ 0.679 µM) | ≤ 0.063 µg/mL | 2 µg/mL (≈ 5.43 µM) | 2 µg/mL (≈ 5.43 µM) | 0.25 µg/mL (≈ 0.679 µM) | 0.25 µg/mL (≈ 0.679 µM) | ≤ 0.063 µg/mL | 2 µg/mL (≈ 5.43 µM) | 8 | 8 | 1.09 mg/kg | 1.05 mg/kg | > 20 µM | 52.8% | 54.8% | > 20 µM | > 20 µM | > 20 µM
CC(=O)NC[C@H]1CN(c2ccc(-c3ccc4ccnn4c3)c(F)c2)C(=O)O1 | 0.5 µg/mL (≈ 1.36 µM) | 0.25 µg/mL (≈ 0.679 µM) | 0.25 µg/mL (≈ 0.679 µM) | ≤ 0.063 µg/mL | 2 µg/mL (≈ 5.43 µM) | 2 µg/mL (≈ 5.43 µM) | 0.25 µg/mL (≈ 0.679 µM) | 0.5 µg/mL (≈ 1.36 µM) | ≤ 0.063 µg/mL | 8 µg/mL (≈ 21.7 µM) | 4 | 8 | > 10 mg/kg | – | – | – | – | – | – | –
O=C1O[C@@H](Cn2ccnn2)CN1c1ccc(-c2ccn3ccnc3c2)c(F)c1 | 0.25 µg/mL (≈ 0.661 µM) | 0.25 µg/mL (≈ 0.661 µM) | 0.125 µg/mL (≈ 0.33 µM) | ≤ 0.063 µg/mL | 2 µg/mL (≈ 5.29 µM) | 2 µg/mL (≈ 5.29 µM) | 0.125 µg/mL (≈ 0.33 µM) | 0.25 µg/mL (≈ 0.661 µM) | ≤ 0.063 µg/mL | 2 µg/mL (≈ 5.29 µM) | – | – | 0.95 mg/kg | 1.02 mg/kg | > 20 µM | 26.7% | 41.2% | > 20 µM | 15 µM | > 20 µM
O=C1O[C@@H](Cn2ccnn2)CN1c1ccc(-c2ccn3ncnc3c2)c(F)c1 | 0.25 µg/mL (≈ 0.659 µM) | 0.25 µg/mL (≈ 0.659 µM) | 0.25 µg/mL (≈ 0.659 µM) | ≤ 0.063 µg/mL | 4 µg/mL (≈ 10.5 µM) | 2 µg/mL (≈ 5.27 µM) | 0.125 µg/mL (≈ 0.33 µM) | 0.25 µg/mL (≈ 0.659 µM) | ≤ 0.063 µg/mL | 2 µg/mL (≈ 5.27 µM) | – | – | – | 0.95 mg/kg | > 20 µM | 27.9% | 33.2% | > 20 µM | > 20 µM | > 20 µM

From ChEMBL document CHEMBL3091359, “Potent oxazolidinone antibacterials with heteroaromatic C-ring substructure” (ACS Med Chem Lett, 2013)
